This is an account of results in patent US9023789B2, “Amylin analogs and pharmaceutical compositions thereof” (Novo Nordisk A/S, priority 2012, dated 2015).

The subject of one test is Sprague Dawley (SD) rats. As to the kind of experiment: ASSAY (I) efficacy testing on appetite (food intake) using an ad libitum fed rat model. The format is in vivo. The settings on record: rat, 30 nmol/kg. The gist of the method:
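Individual food consumption was logged each hour up to 7 h and again at 24 h, occasionally 48 h, with Grubbs-test outliers removed. Each 200–250 g Sprague Dawley rat, free-feeding in its home cage under reversed lighting, received a single ip, po or sc dose of 0.01–3 mg/kg at lights-off, alongside a vehicle group.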

In a further test the target is T1, rat calcitonin receptor (Rattus norvegicus, UniProt P32214).
T1 construct: expressed in transfected cells; host or cells: BHK tk'ts 13 (transient, FuGENE 6), membranes
T1 sequence (P32214 25-479 isoform P32214-2 limits assumed): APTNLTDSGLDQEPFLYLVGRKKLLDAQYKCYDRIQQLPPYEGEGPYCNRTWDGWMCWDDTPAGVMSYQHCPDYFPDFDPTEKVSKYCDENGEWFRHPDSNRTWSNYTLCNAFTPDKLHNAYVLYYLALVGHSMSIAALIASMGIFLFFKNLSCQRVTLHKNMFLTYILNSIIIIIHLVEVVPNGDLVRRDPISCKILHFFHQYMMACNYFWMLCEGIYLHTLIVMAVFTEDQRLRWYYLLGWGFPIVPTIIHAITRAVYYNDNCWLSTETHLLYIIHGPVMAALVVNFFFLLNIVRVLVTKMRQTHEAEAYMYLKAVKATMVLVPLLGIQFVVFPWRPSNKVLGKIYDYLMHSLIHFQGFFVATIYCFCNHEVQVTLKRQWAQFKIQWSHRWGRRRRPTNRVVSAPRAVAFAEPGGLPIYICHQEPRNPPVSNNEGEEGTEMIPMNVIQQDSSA
The test can be described thus: ASSAY (VIII) binding to the rat calcitonin receptor. Conditions: Table 7, read-out: rCTR bind IC50. The gist of the method:
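BHK tk′ts 13 cells, transient rat calcitonin receptor transfection; DMEM + 10% FBS; harvest ~48 h post-transfection; membrane prep.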

Test [1] has as its target T2, human calcitonin (a) receptor in BHK570 cells (Homo sapiens, UniProt P30988).
T2 construct: expressed in transfected cells
T2 sequence (P30988 25-474): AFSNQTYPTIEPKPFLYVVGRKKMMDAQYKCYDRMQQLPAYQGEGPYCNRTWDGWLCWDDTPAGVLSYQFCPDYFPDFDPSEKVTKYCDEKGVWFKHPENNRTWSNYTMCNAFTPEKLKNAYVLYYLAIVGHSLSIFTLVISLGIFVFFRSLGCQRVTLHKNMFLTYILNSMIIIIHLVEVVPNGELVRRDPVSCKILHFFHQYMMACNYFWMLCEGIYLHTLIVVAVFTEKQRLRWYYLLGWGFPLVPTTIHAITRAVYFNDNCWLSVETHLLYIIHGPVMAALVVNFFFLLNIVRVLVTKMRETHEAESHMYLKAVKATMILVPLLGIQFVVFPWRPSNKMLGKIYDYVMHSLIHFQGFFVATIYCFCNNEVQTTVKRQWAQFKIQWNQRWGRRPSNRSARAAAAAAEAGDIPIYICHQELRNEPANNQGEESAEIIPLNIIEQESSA
As to the kind of experiment: ASSAY (II)a functional assay, human calcitonin receptor (CRE luciferase). The settings on record: read-out: hCTR funct. EC50. It is filed as cell-based. The gist of the method:
(§1)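 Readout is luminescence from a cAMP-responsive CRE-luc reporter, developed with LucLite for 30 min at room temperature. Cells were treated for 3 h at 37 °C in 10% FBS/DMEM buffered with 10 mM Hepes (pH 7.4).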

For test [2], the target named is T3, human amylin 3(a) receptor (human calcitonin receptor + RAMP-3) in BHK570 cells (Homo sapiens, UniProt O60896+P30988).
T3 construct: expressed in transfected cells
The test can be described thus: ASSAY (II)a functional assay, human amylin receptor (CRE luciferase). The format is cell-based. The settings on record: for EC50: human amylin receptor functional potency, assay (II), read-out: hAmylin-R funct. EC50. The gist of the method:
as §1

Test [3] has as its target T4, human amylin receptor (membranes from Amylin 3(a)/CRE-luc cells) (Homo sapiens, UniProt O60896+P30988).
T4 construct: expressed in transfected cells
T4 sequence (P30988 25-474): T2 sequence (P30988 25-474)
T4 sequence (O60896 24-148 partner): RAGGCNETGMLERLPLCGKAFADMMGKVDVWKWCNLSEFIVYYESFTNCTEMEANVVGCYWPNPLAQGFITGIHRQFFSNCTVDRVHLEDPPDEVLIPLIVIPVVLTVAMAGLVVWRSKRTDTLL
The test can be described thus: ASSAY (V) binding to the human amylin receptor (SPA, 125I-rat amylin).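 As to all read-outs here: competition binding of cell membranes (35 ng/µL) mixed with SPA beads in 384-well plates at 40 µL total volume, read by scintillation counting.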 The settings on record: for IC50: Table 4, read-out: hAmylin-R bind IC50.

[4] abbreviates: hCTR funct. EC50 divided by hAmylin-R funct. EC50.
The mark [5] stands for this setting: hCTR funct. EC50 over hAmylin-R funct. EC50.
Where [6] appears, read: human functional selectivity: hCTR funct. EC50 / hAmylin-R funct. EC50.
Where [7] appears, read: Table 5, selectivity, hCTR bind IC50 / hAmylin-R bind IC50.
Where [8] appears, read: Table 5a, selectivity, hCTR bind IC50 / hAmylin-R bind IC50.
Where [9] appears, read: Table 5b, selectivity, hCTR bind IC50 / hAmylin-R bind IC50.
Where [10] appears, read: Table 5c, selectivity, hCTR bind IC50 / hAmylin-R bind IC50.
Where [11] appears, read: Table 7, human binding selectivity, included for comparison.
[12] abbreviates: Table 7a (preferred compounds), human binding selectivity, included for comparison.
[13] abbreviates: ratio of human calcitonin receptor binding IC50 to human amylin receptor binding IC50.

Numbered stars: 1 amine (or outer) side, 2 acyl side, 3 side chain; on linkers, the order of the positions; unused ones are H or OH. Bridge positions count the residues as written; N and C are the ends. Side chains are listed from the residue outwards. Peptide text beside a SMILES is read from it. * marks the point of attachment. C20 diacid = O=C(O)CCCCCCCCCCCCCCCCCCC(=O)*; γGlu = O=C(O)[C@H](CCC(=O)[*:2])N[*:1]; AEEA = NCCOCCOCC(=O)O

The IC50 is the concentration at which inhibition is half-maximal. In general, EC50 refers to the midpoint of the concentration-response curve. For the compound `CC[C@H](C)[C@H](NC(=O)[C@H](C)NC(=O)CNC(=O)[C@H](Cc1ccccc1)NC(=O)[C@H](CC(N)=O)NC(=O)[C@@H]1CCCN1C(=O)[C@H](CO)NC(=O)[C@H](CO)NC(=O)[C@H](Cc1c[nH]cn1)NC(=O)[C@H](CCCNC(=N)N)NC(=O)[C@H](CC(C)C)NC(=O)[C@H](Cc1ccccc1)NC(=O)[C@H](CC(N)=O)NC(=O)[C@H](C)NC(=O)[C@H](CC(C)C)NC(=O)[C@H](CCCNC(=N)N)NC(=O)[C@H](CCC(N)=O)NC(=O)[C@@H](NC(=O)[C@H](C)NC(=O)[C@@H]1CSSC[C@H](NC(=O)[C@H](CCCCN)NC(=O)CC[C@H](NC(=O)CCCCCCCCCCCCCCCCCCC(=O)O)C(=O)O)C(=O)N[C@@H](CC(N)=O)C(=O)N[C@@H]([C@@H](C)O)C(=O)N[C@@H](C)C(=O)N[C@@H]([C@@H](C)O)C(=O)N1)[C@@H](C)O)C(=O)N1CCC[C@H]1C(=O)N[C@@H](CO)C(=O)N[C@@H](CO)C(=O)N[C@H](C(=O)N[C@@H](CC(N)=O)C(=O)N[C@H](C(=O)NCC(=O)N[C@@H](CCCNC(=N)N)C(=O)N[C@@H](CC(N)=O)C(=O)N[C@H](C(=O)N[C@@H](Cc1ccc(O)cc1)C(N)=O)[C@@H](C)O)C(C)C)[C@@H](C)O` [Example 39] ({C20 diacid-γGlu}-KCNTATCATQRLANFLRHSSPNFGAIPSSTNVGRNTY-NH2; disulfide 2-7), the “Food intake reduction 0-24 h 30 nmol/kg (%)” value in the test with Sprague Dawley (SD) rats worked out at 36%. For the same compound, the “Food intake reduction 24-48 h 30 nmol/kg (%)” value in the test on Sprague Dawley (SD) rats was 8%. Also, the half-inhibitory concentration (IC50) on rat calcitonin receptor was determined as 96400 pM; in test [3], 665 pM. Moreover, the EC50 in test [1] is 2520 pM; in test [2] it was 217 pM. Also, the “Ratio hCT/hAmylin funct.” value in test [2] (setting [4]), in test [2] (setting [5]) and in test [2] (setting [6]) was 11.6 each time. For the same compound, the “Ratio hCT/hAmylin binding” value in test [3] (setting [7]), in test [3] (setting [8]), in test [3] (setting [9]), in test [3] (setting [10]), in test [3] (setting [11]) and in test [3] (setting [12]) was 29.0 throughout. The “Ratio hCT/hAmylin binding” value in test [3] (setting [13]) is on record as 29.0.
As for `CC[C@H](C)[C@H](NC(=O)[C@H](C)NC(=O)CNC(=O)[C@H](Cc1ccccc1)NC(=O)[C@H](CC(N)=O)NC(=O)[C@@H]1CCCN1C(=O)[C@H](CO)NC(=O)[C@H](CO)NC(=O)[C@H](Cc1c[nH]cn1)NC(=O)[C@H](CCCNC(=N)N)NC(=O)[C@H](CC(C)C)NC(=O)[C@H](Cc1ccccc1)NC(=O)[C@H](CC(N)=O)NC(=O)[C@H](C)NC(=O)[C@H](CC(C)C)NC(=O)[C@H](CCCNC(=N)N)NC(=O)[C@H](CCC(N)=O)NC(=O)[C@@H](NC(=O)[C@H](C)NC(=O)[C@@H]1CSSC[C@H](NC(=O)[C@@H](N)CCCCNC(=O)COCCOCCNC(=O)CC[C@H](NC(=O)CCCCCCCCCCCCCCCCCCC(=O)O)C(=O)O)C(=O)N[C@@H](CC(N)=O)C(=O)N[C@@H]([C@@H](C)O)C(=O)N[C@@H](C)C(=O)N[C@@H]([C@@H](C)O)C(=O)N1)[C@@H](C)O)C(=O)N1CCC[C@H]1C(=O)N[C@@H](CO)C(=O)N[C@@H](CO)C(=O)N[C@H](C(=O)N1CCC[C@H]1C(=O)N[C@H](C(=O)NCC(=O)N[C@@H](CO)C(=O)N[C@@H](Cc1c[nH]cn1)C(=O)N[C@H](C(=O)N[C@@H](Cc1ccc(O)cc1)C(N)=O)[C@@H](C)O)C(C)C)[C@@H](C)O` [Example 57] (H-K([AEEA-γGlu-C20 diacid])CNTATCATQRLANFLRHSSPNFGAIPSSTPVGSHTY-NH2; disulfide 2-7; N-terminus assumed), the “Food intake reduction 0-24 h 30 nmol/kg (%)” value in the test on Sprague Dawley (SD) rats came to 62%. In addition, the “Food intake reduction 24-48 h 30 nmol/kg (%)” value with Sprague Dawley (SD) rats came to 16%. The half-inhibitory concentration (IC50) came out at 24400 pM on rat calcitonin receptor and 115 pM in test [3]. The EC50 in test [1] was 3120 pM; in test [2] it was 89 pM. Moreover, the “Ratio hCT/hAmylin funct.” value in test [2] (setting [4]), in test [2] (setting [5]) and in test [2] (setting [6]) was 35.0 each time. For the same compound, the “Ratio hCT/hAmylin binding” value in test [3] (setting [7]), in test [3] (setting [8]), in test [3] (setting [9]), in test [3] (setting [10]), in test [3] (setting [11]) and in test [3] (setting [12]) was 133.0 in each case. The “Ratio hCT/hAmylin binding” value in test [3] (setting [13]) is on record as 133.0.
For the compound `CC[C@H](C)[C@H](NC(=O)[C@H](C)NC(=O)CNC(=O)[C@H](Cc1ccccc1)NC(=O)[C@H](CC(N)=O)NC(=O)[C@@H]1CCCN1C(=O)[C@H](CO)NC(=O)[C@H](CO)NC(=O)[C@H](Cc1c[nH]cn1)NC(=O)[C@H](CCCNC(=N)N)NC(=O)[C@H](CC(C)C)NC(=O)[C@H](Cc1ccccc1)NC(=O)[C@H](Cc1c[nH]cn1)NC(=O)[C@H](C)NC(=O)[C@H](CC(C)C)NC(=O)[C@H](CCCNC(=N)N)NC(=O)[C@H](CCC(N)=O)NC(=O)[C@@H](NC(=O)[C@H](C)NC(=O)[C@@H]1CSSC[C@H](NC(=O)[C@@H](N)CCCCNC(=O)CC[C@H](NC(=O)CCCCCCCCCCCCCCCCCCC(=O)O)C(=O)O)C(=O)N[C@@H](CC(N)=O)C(=O)N[C@@H]([C@@H](C)O)C(=O)N[C@@H](C)C(=O)N[C@@H]([C@@H](C)O)C(=O)N1)[C@@H](C)O)C(=O)N1CCC[C@H]1C(=O)N[C@@H](CO)C(=O)N[C@@H](CO)C(=O)N[C@H](C(=O)N1CCC[C@H]1C(=O)N[C@H](C(=O)NCC(=O)N[C@@H](CO)C(=O)N[C@@H](CC(N)=O)C(=O)N[C@H](C(=O)N[C@@H](Cc1ccc(O)cc1)C(N)=O)[C@@H](C)O)C(C)C)[C@@H](C)O` [Example 62] (H-K([γGlu-C20 diacid])CNTATCATQRLAHFLRHSSPNFGAIPSSTPVGSNTY-NH2; disulfide 2-7; N-terminus assumed), the “Food intake reduction 0-24 h 30 nmol/kg (%)” value in the test with Sprague Dawley (SD) rats came to 62%. Also, the “Food intake reduction 24-48 h 30 nmol/kg (%)” value in the test with Sprague Dawley (SD) rats was 18%. For the same compound, the IC50 amounted to 18000 pM on rat calcitonin receptor and 98 pM in test [3]. For the same compound, the EC50 in test [1] came out at 539 pM; in test [2], 44 pM. For the same compound, the “Ratio hCT/hAmylin funct.” value in test [2] (setting [4]), in test [2] (setting [5]) and in test [2] (setting [6]) was 12.3 in each case. Moreover, the “Ratio hCT/hAmylin binding” value in test [3] (setting [7]), in test [3] (setting [8]), in test [3] (setting [9]), in test [3] (setting [10]), in test [3] (setting [11]) and in test [3] (setting [12]) was 63.0 each time. Besides, in test [3] (setting [13]), the “Ratio hCT/hAmylin binding” value is listed as 63.0.
